Source: PMC7176092, “Development of the first in vivo GPR17 ligand through an iterative drug discovery pipeline: A novel disease-modifying strategy for multiple sclerosis” (PLoS ONE, 2020)
Values joined by “and” are separate entries in the source; they are usually repeats but may differ in a detail not shown here. Equal entries are not always repeated. Where two headings read alike, the source gives them in different places.

Key:
[1] = In vivo mouse DMPK study, single 1 mg/kg subcutaneous dose
Description: In vivo DMPK studies were performed as an external service by Aptuit (Verona, Italy) according to standard procedures.
Two compounds were tested in a single dose pharmacokinetic (PK) study in mouse, in which a 1 mg/kg single dose solution (15% Ethanol, 85% PEG400) was administered by subcutaneous injection to naïve CD1 male mice from accredited supplier (n = 3), weighed prior to dosing. Blood samples were collected for 8 time-points (0.25, 0.50, 1, 2, 4, 6, 8, 24 hours).
Plasma samples were prepared and diluted according standard in-house procedures and stored at approximately -20°C, pending analysis. Briefly, blood samples were collected into tubes containing anticoagulant (K3EDTA), stored on ice and centrifuged to prepare plasma within 2 hours of collection. Plasma samples were diluted in Hepes Buffer and deproteinised using CH3CN containing rolipram as internal reference compound for positive ion mode, according standard procedure (20 ng/ml). After vortexing and centrifugation (3000 rpm per 10 min), sample supernatants were transferred in 96 well plate and diluted with water for analysis.
Blood concentrations of the tested compounds and their metabolites were detected through Liquid Chromatography-tandem Mass Spectrometry (QTRAP® 4000 LC-MS/MS System, Sciex). The results for each test compound in plasma were subjected to non-compartmental PK analysis using WinNonlin Phoenix v.6.3 for generation of appropriate PK parameters, reported along with graphical representation of the mean plasma concentration profiles over time.
At 24 hours, animals were sacrificed, and brains were collected and processed for measuring compound concentrations through mass spectrometry.

CCR8 = CCR8 (Homo sapiens, UniProt P51685); experiment: Cellular functional assay CCR8
CCR2 = target: T1, CCR2 (Homo sapiens, UniProt P41597); experiment: Binding assay CCR2; conditions: 100 nM
T1 construct: Eurofins Cerep (external service)

ADR1B = target: T2, ADR1B (Homo sapiens, UniProt P35368); experiment: Binding assay ADR1B; conditions: 100 nM
T2 construct: Eurofins Cerep (external service)
T2 sequence (P35368 1-520): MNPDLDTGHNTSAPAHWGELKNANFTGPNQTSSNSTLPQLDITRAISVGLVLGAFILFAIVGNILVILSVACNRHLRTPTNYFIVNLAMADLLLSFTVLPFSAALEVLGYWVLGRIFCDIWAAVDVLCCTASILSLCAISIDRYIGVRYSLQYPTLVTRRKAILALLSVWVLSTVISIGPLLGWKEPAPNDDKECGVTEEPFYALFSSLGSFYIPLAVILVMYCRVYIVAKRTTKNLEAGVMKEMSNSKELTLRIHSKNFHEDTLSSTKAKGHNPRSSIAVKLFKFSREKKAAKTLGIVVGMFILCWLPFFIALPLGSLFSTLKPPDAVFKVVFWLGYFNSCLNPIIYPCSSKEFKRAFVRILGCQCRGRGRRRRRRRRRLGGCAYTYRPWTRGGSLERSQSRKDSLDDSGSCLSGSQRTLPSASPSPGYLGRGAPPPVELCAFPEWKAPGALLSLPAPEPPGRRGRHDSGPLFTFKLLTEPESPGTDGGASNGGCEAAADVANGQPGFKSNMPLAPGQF

40 human receptors = experiment: Selectivity profile on class-A GPCRs (Eurofins Cerep); conditions: 0.1 μM; binding and cellular assays
Text: A subset of GPCRs with a relevant role in demyelination/remyelination was also included in this analysis.

CXCR2 = target: T3, CXCR2 (Homo sapiens, UniProt P25025); experiment: Binding assay CXCR2; conditions: 100 nM
T3 construct: Eurofins Cerep (external service)
T3 sequence (P25025 1-360): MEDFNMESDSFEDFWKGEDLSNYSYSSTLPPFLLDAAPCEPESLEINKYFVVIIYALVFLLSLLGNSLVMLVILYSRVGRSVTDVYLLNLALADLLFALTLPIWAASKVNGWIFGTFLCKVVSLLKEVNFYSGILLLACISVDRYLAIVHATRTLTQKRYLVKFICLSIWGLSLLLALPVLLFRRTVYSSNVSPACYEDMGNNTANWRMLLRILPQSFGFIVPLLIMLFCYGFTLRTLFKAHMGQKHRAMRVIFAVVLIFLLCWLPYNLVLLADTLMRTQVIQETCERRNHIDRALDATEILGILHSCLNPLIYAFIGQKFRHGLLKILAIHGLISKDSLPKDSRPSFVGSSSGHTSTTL

M3 = target: T4, M3 (Homo sapiens, UniProt P20309); experiment: Binding assay M3; conditions: 100 nM
T4 construct: Eurofins Cerep (external service)

CXCR6 = CXCR6 (Homo sapiens, UniProt O00574); experiment: Cellular functional assay CXCR6
ADR2A = target: T5, ADR2A (Homo sapiens, UniProt P08913); experiment: Binding assay ADR2A; conditions: 100 nM
T5 construct: Eurofins Cerep (external service)
T5 sequence (P08913 1-465): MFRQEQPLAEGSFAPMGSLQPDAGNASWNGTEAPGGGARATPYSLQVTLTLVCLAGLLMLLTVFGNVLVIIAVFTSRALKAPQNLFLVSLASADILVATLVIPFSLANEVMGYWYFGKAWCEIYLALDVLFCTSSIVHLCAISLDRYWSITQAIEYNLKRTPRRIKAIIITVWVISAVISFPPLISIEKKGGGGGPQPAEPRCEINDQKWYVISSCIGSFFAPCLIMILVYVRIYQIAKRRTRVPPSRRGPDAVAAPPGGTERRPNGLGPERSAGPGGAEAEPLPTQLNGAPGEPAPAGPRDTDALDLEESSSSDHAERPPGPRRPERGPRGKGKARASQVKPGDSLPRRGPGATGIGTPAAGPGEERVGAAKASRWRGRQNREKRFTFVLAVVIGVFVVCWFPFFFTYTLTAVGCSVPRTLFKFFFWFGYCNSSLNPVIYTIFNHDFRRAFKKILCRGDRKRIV

[2] = mouse, sc, plasma, 1 mg/kg s.c. single dose, CD1 male mice
[3] = antagonist effect, 100 nM, single replicates 1st and 2nd, 0.1 µM
[4] = read-out: % Inhibition of control agonist response
[5] = read-out: Agonist Response (% of Control), Mean, antagonist effect, 100 nM, mean of 2
[6] = mean of 2, read-out: % Of control specific binding, Mean
[7] = read-out: % Inhibition of control specific binding
[8] = single replicates 1 and 2, 0.1 µM
[9] = single replicates 1 and 2, read-out: % Of control specific binding

Chain of CCR8 (P51685 whole entry): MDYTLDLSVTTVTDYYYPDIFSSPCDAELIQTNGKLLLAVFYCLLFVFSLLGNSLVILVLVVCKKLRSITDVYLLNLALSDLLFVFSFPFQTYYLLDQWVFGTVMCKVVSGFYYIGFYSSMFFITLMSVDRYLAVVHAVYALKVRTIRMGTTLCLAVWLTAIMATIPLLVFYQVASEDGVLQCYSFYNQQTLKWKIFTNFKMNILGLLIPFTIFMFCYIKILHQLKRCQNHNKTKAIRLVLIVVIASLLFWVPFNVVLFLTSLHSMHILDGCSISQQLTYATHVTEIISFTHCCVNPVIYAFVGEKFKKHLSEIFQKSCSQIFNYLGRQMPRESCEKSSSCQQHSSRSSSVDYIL
T1 sequence (P41597 whole entry): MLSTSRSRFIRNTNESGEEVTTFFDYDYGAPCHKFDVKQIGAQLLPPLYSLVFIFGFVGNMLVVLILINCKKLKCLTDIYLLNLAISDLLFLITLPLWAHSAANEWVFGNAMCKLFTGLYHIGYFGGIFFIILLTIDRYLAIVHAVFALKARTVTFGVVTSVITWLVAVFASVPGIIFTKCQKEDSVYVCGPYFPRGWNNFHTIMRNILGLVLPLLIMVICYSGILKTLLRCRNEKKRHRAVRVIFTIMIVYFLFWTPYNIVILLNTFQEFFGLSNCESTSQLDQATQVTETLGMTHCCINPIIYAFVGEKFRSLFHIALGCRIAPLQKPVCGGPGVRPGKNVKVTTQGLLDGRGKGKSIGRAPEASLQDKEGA
Chain of CXCR6 (O00574 whole entry): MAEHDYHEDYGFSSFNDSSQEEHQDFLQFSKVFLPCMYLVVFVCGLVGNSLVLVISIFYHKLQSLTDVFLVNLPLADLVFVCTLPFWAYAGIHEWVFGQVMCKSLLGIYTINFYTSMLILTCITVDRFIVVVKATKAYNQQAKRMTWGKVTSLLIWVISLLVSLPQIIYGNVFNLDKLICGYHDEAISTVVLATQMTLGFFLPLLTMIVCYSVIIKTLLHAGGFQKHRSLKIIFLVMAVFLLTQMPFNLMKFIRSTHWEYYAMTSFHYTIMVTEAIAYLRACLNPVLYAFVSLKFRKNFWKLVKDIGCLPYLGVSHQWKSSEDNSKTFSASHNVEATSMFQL
T4 sequence (P20309 whole entry): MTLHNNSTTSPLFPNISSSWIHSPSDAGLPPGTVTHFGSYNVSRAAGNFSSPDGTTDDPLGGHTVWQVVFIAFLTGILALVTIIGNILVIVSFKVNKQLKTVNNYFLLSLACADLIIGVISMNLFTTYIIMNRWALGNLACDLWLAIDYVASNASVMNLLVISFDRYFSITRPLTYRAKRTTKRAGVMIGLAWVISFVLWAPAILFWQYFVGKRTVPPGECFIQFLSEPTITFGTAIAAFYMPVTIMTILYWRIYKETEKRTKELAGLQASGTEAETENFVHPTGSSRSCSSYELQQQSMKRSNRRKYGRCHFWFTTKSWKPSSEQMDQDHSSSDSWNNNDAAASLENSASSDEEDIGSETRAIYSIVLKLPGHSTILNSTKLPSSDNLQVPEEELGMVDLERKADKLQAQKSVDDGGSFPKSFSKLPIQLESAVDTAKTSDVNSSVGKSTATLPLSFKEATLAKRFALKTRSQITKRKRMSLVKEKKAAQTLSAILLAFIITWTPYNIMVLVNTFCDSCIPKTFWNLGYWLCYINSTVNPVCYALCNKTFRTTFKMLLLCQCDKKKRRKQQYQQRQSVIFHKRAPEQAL

For Cc1ccc(-c2nnc(SCC(=O)Nc3nccs3)[nH]2)cc1 [Compound 9], the “Plasma concentration, individual mice” value ([1]; 0.50 h, 1 mg/kg s.c., 1 mg/kg) was 71.7 ng/mL and 98.3 ng/mL and 30.8 ng/mL, the “Plasma concentration, individual mice” value ([1]; 1.00 h, 1 mg/kg s.c., 1 mg/kg) was 14.3 ng/mL and 38.5 ng/mL and 76.3 ng/mL and the “Plasma concentration, individual mice” value ([1]; 2.00 h, 1 mg/kg s.c., 1 mg/kg) was 5.6 ng/mL and 10.3 ng/mL and 29.8 ng/mL. The “Plasma concentration, individual mice” value ([1]; 4.00 h, 1 mg/kg s.c., 1 mg/kg) was 2.6 ng/mL, the concentration at 0.5 h ([1]; male, CD1, mouse, plasma, sc, 1 mg/kg, 0.50 h, 1 mg/kg s.c., n=3 mice, read-out: Plasma concentration, Mean) was 66.9 ng/mL and the concentration at 1 h ([1]; male, CD1, mouse, plasma, sc, 1 mg/kg, 1.00 h, 1 mg/kg s.c., n=3 mice, read-out: Plasma concentration, Mean) was 43 ng/mL. The concentration at 2 h ([1]; male, CD1, mouse, plasma, sc, 1 mg/kg, 2.00 h, 1 mg/kg s.c., n=3 mice) was 15.2 ng/mL, the concentration at 4 h ([1]; male, CD1, mouse, plasma, sc, 1 mg/kg, 4.00 h, 1 mg/kg s.c., read-out: Plasma concentration, Mean) was 2.8 ng/mL and the concentration at 4 h ([1]; male, CD1, mouse, plasma, sc, 1 mg/kg, 4.00 h, 1 mg/kg s.c., read-out: Plasma concentration, individual mice) was 2.9 ng/mL. The concentration at 4 h ([1]; male, CD1, mouse, plasma, sc, 1 mg/kg, plasma, 1 mg/kg s.c. single dose, CD1 male mice, read-out: Clast) was 4.81 ng/mL, the AUC(0-t) [1, 2] was 85.8 ng·h/mL and the Cmax [1, 2] was 72.3 ng/mL. For the same compound, the Tmax [1, 2] was 30 min, the half-life [1, 2] was 65.4 min and the “Metabolites found in vivo” value ([1]; plasma after s.c. administration in mice) was “no detectable metabolites”. For the same compound, the Tlast ([1]; plasma, 1 mg/kg s.c. single dose, CD1 male mice) was 4.00 h, the “Agonist Response (% of Control)” value (CCR8; [3]) was 116.9% and 80.2% and the inhibition at 0.1 µM (CCR8; [4]) was 2%. The activity at 0.1 µM (CCR8; [5]) was 98.5%, the remaining activity at 0.1 µM (CCR2; [6]) was 88.4% and the inhibition at 0.1 µM (CCR2; [7]) was 12%. For the same compound, the “% Of control specific binding” value (CCR2; [8]) was 88.9%, the remaining activity at 0.1 µM (CCR2; [9]) was 88% and the remaining activity at 0.1 µM (ADR1B; [6]) was 89.8%. For the same compound, the inhibition at 0.1 µM (ADR1B; [7]) was 10%, the “% Of control specific binding” value (ADR1B; [8]) was 100.1% and 79.4% and the “Pharmacological activity on the tested GPCRs” value (40 human receptors) was “no significant pharmacological activity”. For the same compound, the remaining activity at 0.1 µM (CXCR2; [6]) was 97.3%, the inhibition at 0.1 µM (CXCR2; [7]) was 3% and the “% Of control specific binding” value (CXCR2; [8]) was 98.7%. For the same compound, the remaining activity at 0.1 µM (CXCR2; [9]) was 96%, the remaining activity at 0.1 µM (M3; [6]) was 106% and the inhibition at 0.1 µM (M3; [7]) was -6%. The “% Of control specific binding” value (M3; [8]) was 110.4%, the remaining activity at 0.1 µM (M3; [9]) was 101% and the “Agonist Response (% of Control)” value (CXCR6; [3]) was 103.1%. It also gave an inhibition at 0.1 µM (CXCR6; [4]) of -0.7%, an activity at 0.1 µM (CXCR6; [5]) of 104% and an activity at 0.1 µM (CXCR6; read-out: Agonist Response (% of Control), antagonist effect, 100 nM, single replicates 1st and 2nd) of 105%. The remaining activity at 0.1 µM (ADR2A; [6]) was 99.9%, the inhibition at 0.1 µM (ADR2A; [7]) was 0% and the “% Of control specific binding” value (ADR2A; [8]) was 99.5%. It also gave a remaining activity at 0.1 µM (ADR2A; [9]) of 100%.
